Molecular target: Carbonic anhydrase 9 (Homo sapiens, UniProt Q16790)
Description: Inhibition of recombinant human carbonic anhydrase 9 catalytic domain expressed in Escherichia coli incubated for 15 mins prior to testing by stopped flow CO2 hydrase assay

Row | Compound | Ki
1 | CC1(C)CC(=O)C2=C(C1)N(c1ccc(S(N)(=O)=O)cc1)C1=C(C(=O)CC(C)(C)C1)C2c1ccc(N)cc1 | 1000 nM
2 | CC1(C)CC(=O)C2=C(C1)N(c1ccc(S(N)(=O)=O)cc1)C1=C(C(=O)CC(C)(C)C1)C2c1cccc(N)c1 | 920 nM
3 | CC1(C)CC(=O)C2=C(C1)N(c1ccc(S(N)(=O)=O)cc1)C1=C(C(=O)CC(C)(C)C1)C2c1ccc(NS(=O)(=O)c2ccccc2)cc1 | 580 nM
4 | Cc1ccc(S(=O)(=O)Nc2ccc(C3C4=C(CC(C)(C)CC4=O)N(c4ccc(S(N)(=O)=O)cc4)C4=C3C(=O)CC(C)(C)C4)cc2)cc1 | 100 nM
5 | COc1ccc(S(=O)(=O)Nc2ccc(C3C4=C(CC(C)(C)CC4=O)N(c4ccc(S(N)(=O)=O)cc4)C4=C3C(=O)CC(C)(C)C4)cc2)cc1 | 440 nM
6 | CC1(C)CC(=O)C2=C(C1)N(c1ccc(S(N)(=O)=O)cc1)C1=C(C(=O)CC(C)(C)C1)C2c1ccc(NS(=O)(=O)c2ccc(Br)cc2)cc1 | 1120 nM
7 | CC1(C)CC(=O)C2=C(C1)N(c1ccc(S(N)(=O)=O)cc1)C1=C(C(=O)CC(C)(C)C1)C2c1ccc(NS(=O)(=O)c2ccc3ccccc3c2)cc1 | 280 nM
8 | CC1(C)CC(=O)C2=C(C1)N(c1ccc(S(N)(=O)=O)cc1)C1=C(C(=O)CC(C)(C)C1)C2c1cccc(NS(=O)(=O)c2ccccc2)c1 | 110 nM
9 | Cc1ccc(S(=O)(=O)Nc2cccc(C3C4=C(CC(C)(C)CC4=O)N(c4ccc(S(N)(=O)=O)cc4)C4=C3C(=O)CC(C)(C)C4)c2)cc1 | 100 nM
10 | COc1ccc(S(=O)(=O)Nc2cccc(C3C4=C(CC(C)(C)CC4=O)N(c4ccc(S(N)(=O)=O)cc4)C4=C3C(=O)CC(C)(C)C4)c2)cc1 | 800 nM
11 | CC1(C)CC(=O)C2=C(C1)N(c1ccc(S(N)(=O)=O)cc1)C1=C(C(=O)CC(C)(C)C1)C2c1cccc(NS(=O)(=O)c2ccc(Br)cc2)c1 | 250 nM
12 | CC1(C)CC(=O)C2=C(C1)N(c1ccc(S(N)(=O)=O)cc1)C1=C(C(=O)CC(C)(C)C1)C2c1cccc(NS(=O)(=O)c2ccc3ccccc3c2)c1 | 810 nM

Reference: ChEMBL document CHEMBL3621088, “Synthesis of novel acridine bis-sulfonamides with effective inhibitory activity against the carbonic anhydrase isoforms I, II, IX and XII” (Bioorg Med Chem, 2015)
